Reference: article PMC9653804, “Multifunctional Derivatives of Spiropyrrolidine Tethered Indeno-Quinoxaline Heterocyclic Hybrids as Potent Antimicrobial, Antioxidant and Antidiabetic Agents: Design, Synthesis, In Vitro and In Silico Approaches” (Molecules, 2022)
In brackets after ≈: the same amount, converted by molar mass.

Legend:
[1] = test system: Candida albicans ATCC 90028; assay: Antifungal activity (MIC, MFC) against C. albicans; type: cell-based; details: C. albicans ATCC 90028, '-' = No activity; for MFC/MIC: fungicidal ≤ 4, fungistatic > 4
[2] = DPPH free radical scavenging activity; details: for IC50: DPPH radical scavenging
Procedure: DPPH, the stable artificial free radicals, has been widely used for the measurement of free radical scavenging capacity of the compounds in ethanol and aqueous systems. Briefly, 2 mL DPPH solution (0.2 mM, in 95% ethanol) was incubated with 2 mL different concentrations of compounds solution. Then, the reaction mixture was shaken and incubated in the dark for 40 min at room temperature. The absorbance was immediately recorded at 517 nm against ethanol with a spectrophotometer (Metash, model UV-5200, Shanghai Xiwen Biotech. Co., Ltd, Shanghai, China). The DPPH free radical scavenging rate was calculated using the equation:DPPH scavenging activity (%) = A0 − A1/A0 × 100 where A0 was the absorbance of the control reaction (containing all reagents except the tested compound), and A1 was the absorbance of the test reaction (containing all reagents with the tested compound). The percentage of DPPH radical scavenging activity was plotted against the sample concentration to acquire the IC50 value, defined as the concentration of sample necessary to cause 50% inhibition. Radical scavenging activity (RSA) was calculated from the IC50 value as the equation: RSA = pIC50 = −lg[IC50]. The smaller the IC50 value, the larger is the RSA value and the higher is the antioxidant activity.

[3] = test system: Pseudomonas aeruginosa ATCC 27853; assay: Antimicrobial activity (MIC, MBC) against P. aeruginosa; type: cell-based; details: P. aeruginosa ATCC 27853; '-' = No activity
Candida krusei ATCC 6258 = assay: Antifungal activity (MIC, MFC) against C. krusei; type: cell-based; details: C. krusei ATCC 6258, '-' = No activity; for MFC / MIC: Pichia kudriavzevii, ATCC6258
[4] = Radical scavenging activity ABTS; details: for IC50: ABTS radical scavenging
Procedure: The ABTS assay was performed as previously described by Tuberoso et al.. ABTS^+ radical was generated by oxidation of ABTS with potassium persulfate. The blue–green ABTS was produced through the reaction between 2 mM ABTS and […] potassium persulfate in water. The mixture was left to stand in the dark for 12 to 16 h before use. The ABTS solution was diluted with methanol to an absorbance of 0.700 ± 0.005 at 734 nm. Then 2 mL of diluted ABTS solution was mixed with 100 μL of samples and absorbance was measured after 1 min incubation at room temperature. A standard curve was obtained by using Trolox as standard solution. The results were expressed as μM Trolox equivalent.
The mixture of 7 mmol/L aqueous ABTS solution with 2.45 mmol/L potassium persulfate solution constitutes a stable ABTS^+ stock solution that was allowed to stand in the dark and at room temperature for 12 to 16 h before use. A 1 mL sample of the diluted ABTS solution (adjusted to 0.7 ± 0.02 at […]) was added to 10 μL of each product. The absorbance was determined after 6 min. The percentage inhibition of the ABTS˙ radical was calculated from the following equation:% inhibition = (Abscontrol − Abstest)/Abscontrol × 100
Abs control: the control absorbance.
Abs test: the absorbance of the test sample after 6 min.

[5] = test system: Micrococccus luteus NCIMB 8166; assay: Antimicrobial activity (MIC, MBC) against M. luteus; type: cell-based; details: M. luteus NCIMB 8166; '-' = No activity
[6] = test system: Escherichia coli ATCC 25922; assay: Antimicrobial activity (MIC, MBC) against E. coli; type: cell-based; details: E. coli ATCC 25922; '-' = No activity
[7] = Ferric reducing power assay (FRAP)
[8] = test system: Staphylococcus aureus ATCC 25923; assay: Antimicrobial activity (MIC, MBC) against S. aureus; type: cell-based; details: S. aureus ATCC 25923; for MBC/MIC: bactericidal ≤ 4, bacteriostatic > 4; for MIC: Staphylococcus aureus, ATCC25923, '-' = No activity
[9] = Ferric reducing power assay (FRAP); details: relative to standard Trolox
Procedure: The FRAP assay was used to determine the AC of the products by the reduction of Fe(III) and Fe (II). Briefly, Fe(III) was reduced to Fe(II), and Fe(II) was mixed with TPTZ to form a blue complex with strong absorption peak at 593 nm at pH = 3.6 condition. Acetate buffer (pH = 3.6), TPTZ solution (10 mM, in 40 mM hydrochloric acid) and FeCl3 solution (20 mM, in water) were mixed in a ratio of 10:1:1 to prepare FRAP working solution. The products solution (0.5 mL) was mixed with 4.0 mL FRAP working solution, and reacted at 37 °C for 30 min in the dark, and the absorbance at 593 nm was immediately recorded with a spectrophotometer. The result was expressed as the equivalent amount of Trolox per mole of the samples (mol TE/mol).

In the case of `CN1C(=O)CC2(C1=O)C(c1ccc(Cl)cc1)CN(C)C21c2ccccc2-c2nc3ccccc3nc21` (stereo not drawn) [5e, Spiro [2,11″]indeno-[1,2b]-quinoxaline-spiro-[3,3′]-N-methylsuccinimide-4-(4-chlorophenyl)hexahydro-1H-pyrrolidines], the MFC/MIC [1] is reported as 1, the MFC ([1]; Candida albicans, ATCC90028) is reported as 62.9 mM (≈ 31.1 mg/mL) and the MIC ([1]; Candida albicans, ATCC90028) is reported as 62.9 mM (≈ 31.1 mg/mL). For the same compound, the IC50 [2] was 6.12 ± 0.01 µM, the “DPPH scavenging activity, fold better than Trolox” value ([2]; relative to standard Trolox) was 5.1 fold and the MBC/MIC [3] was 4. The MFC/MIC (Candida krusei ATCC 6258) was 1, the MFC (Candida krusei ATCC 6258) was 31.4 mM (≈ 15.6 mg/mL) and the MIC (Candida krusei ATCC 6258) was 31.4 mM (≈ 15.6 mg/mL). For the same compound, the IC50 [4] was 12.2 ± 0.18 µM, the “ABTS scavenging activity, fold higher than Trolox” value ([4]; relative to standard Trolox) was about 8 fold and the melting point was 182 to 184 °C. It also gave an MBC/MIC [5] of 1, an MBC/MIC [6] of 2 and an IC50 [7] of 6.54 ± 0.18 µM. The MBC/MIC [8] was 16, the MIC [8] was 15.7 mM (≈ 7.78 mg/mL) and the “FRAP activity, fold higher than Trolox” value [9] was “about 6.5 fold”.
`CN1C(=O)CC2(C1=O)C(c1cccc(Cl)c1)CN(C)C21c2ccccc2-c2nc3ccccc3nc21` (stereo not drawn) [5i, Spiro [2,11″]indeno-[1,2b]-quinoxaline-spiro-[3,3′]-N-methylsuccinimide-4-(3-chloro-phenyl)hexahydro-1H-pyrrolidines] showed an IC50 [2] of 7.8 ± 0.32 µM, an MBC/MIC [3] of 4 and an MFC/MIC (Candida krusei ATCC 6258) of 1. For the same compound, the MFC (Candida krusei ATCC 6258) was 31.4 mM (≈ 15.6 mg/mL), the MIC (Candida krusei ATCC 6258) was 31.4 mM (≈ 15.6 mg/mL) and the IC50 [4] was 11.4 ± 0.36 µM. For the same compound, the melting point was 193 to 195 °C, the MBC/MIC [5] was 1 and the MBC/MIC [6] was 2. The IC50 [7] was 5.98 ± 0.52 µM, the MBC/MIC [8] was 4 and the “FRAP activity, fold higher than Trolox” value [9] was “about 6.5 fold”.
`CN1C(=O)CC2(C1=O)C(c1cccs1)CN(C)C21c2ccccc2-c2nc3ccccc3nc21` (stereo not drawn) [5h, Spiro [2,11″]indeno-[1,2b]-quinoxaline-spiro-[3,3′]-N-methylsuccinimide-4-(4-thiophenyl)hexahydro-1H-pyrrolidines] showed an MFC/MIC [1] of 4, an MIC ([1]; Candida albicans, ATCC90028) of 66.7 mM (≈ 31.1 mg/mL) and an IC50 [2] of 19.1 ± 0.23 µM. The MBC/MIC [3] was 2, the MFC/MIC (Candida krusei ATCC 6258) was 1 and the MFC (Candida krusei ATCC 6258) was 66.7 mM (≈ 31.1 mg/mL). For the same compound, the MIC (Candida krusei ATCC 6258) was 66.7 mM (≈ 31.1 mg/mL), the IC50 [4] was 18.04 ± 0.13 µM and the melting point was 203 to 205 °C. It also gave an MBC/MIC [5] of 1, an MBC/MIC [6] of 2 and an IC50 [7] of 6.32 ± 0.68 µM. The MBC/MIC [8] was 16, the MIC [8] was 33.3 mM (≈ 15.6 mg/mL) and the “FRAP activity, fold higher than Trolox” value [9] was “about 6.5 fold”.
